“Also recorded” adds a separate entry of the source.
Assays:
[1] = test system: PCP-induced high locomotor activity in mice; experiment: Phencyclidine (PCP) induced high locomotor activity (LMA) in mice; assay type: in vivo; parameters: Distance resulting from the activity, First 30 min / Distance resulting from the activity, Last 30 min: unit not given here; conditions: for Effect on PCP-induced high locomotor activity compared with olanzapine (in words) / Inhibition of PCP-induced high locomotor activity (in words): 5, 10, 20 mg/kg; for Effect on PCP-induced high locomotor activity compared with olanzapine (in words): p.o. vs olanzapine 5 mg/kg p.o.; for Inhibition of PCP-induced high locomotor activity (in words): p.o., P<0.05-0.01; for Distance resulting from the activity, First 30 min / Distance resulting from the activity, Last 30 min: PCP 5.0 mg/kg s.c., male ICR mice
Source text: • 1. The effect of the compound on phencyclidine (PCP) induced high locomotor activity (LMA) in mice was detected.
The test compound MDC was milky white powder and stored in a shade and cool place (freshly formulated with 1% DMSO before use). […] Phencyclidine (PCP), purchased from Sigma Aldrich, was a grayish white powder (freshly formulated with normal saline before use). 1% DMSO was formulated by diluting pure DMSO (purity>99.5, purchased from Sigma-Aldrich) with normal saline.
Male ICR mice having weight 22±2 g were kept at 8 mice/cage with 12/12 hours light/dark cycle, temperature 23° C.±1° C., humidity 50% to 60%, free to eat and drink water.
The administration volume was 0.1 ml/10 g body weight; PCP was formulated with normal saline at a dose of 5 mg/kg.
The test compound MDC and olanzapine were administered by gavage and PCP was administered by subcutaneous injection.
After one week of acclimation, mice were randomly divided into 6 groups according to their body weight: negative control group, model group, positive control group, and low dose group, medium dose group and high dose group for the test compound. 8-10 animals/group.
Group 1: Negative control group: Normal saline (s.c.)+1% DMSO (10.0 ml/kg, p.o.);
Group 2: Model group: PCP (5.0 mg/kg, s.c.)+1% DMSO (10.0 ml/kg, p.o.);
Group 4: MDC low dose group: PCP (5.0 mg/kg, s.c.)+MDC (5 mg/kg, p.o.);
Group 5: MDC medium dose group: PCP (5.0 mg/kg, s.c.)+MDC (10 mg/kg, p.o.);
Group 6: MDC high dose group: PCP (5.0 mg/kg, s.c.)+MDC (20 mg/kg, p.o.).
After oral administration, the animals were immediately placed in a locomotor activity box and recorded by Shanghai Jiliang ( ? ) animal video analysis system for 1 hour.
After the experiment, the activity of the animals within 1 hour was analyzed using the trajectory analysis software of Shanghai Jiliang animal video analysis system to obtain the total distance resulting from the activity.

D2 receptor = biological target: T1, D2 receptor (Homo sapiens, UniProt P14416); experiment: D2 receptor function assay, calcium mobilization (FLIPR); assay type: cell-based; conditions: HEK293, antagonism of D2 receptor
T1 construct: expressed in transfected cells; host or cells: HEK293
Protocol: Bioactivity Test • I. D2 receptor affinity assay: The affinity of the compound to D2 receptor was determined by radioligand competition assay, and the cloned D2 receptor was expressed in HEK293 cell line. • II. D2 receptor function assay: The ability of the compound to antagonize the D2 receptor was determined using a calcium mobilization assay (FLIPR). • III. DAT receptor function assay: The ability of the compound to inhibit DAT was determined by neurotransmitter transporter absorption assay.
• Cell line: HEK293 • DMEM medium (Invitrogen) • Fetal bovine serum (FBS, Invitrogen) • L-Glutamine (Invitrogen) G418 (Invitrogen) • Blasticidin (Invitrogen)
• Fluo-4 Direct Kit (Invitrogen)
• 250 mM Probenecid solution was formulated: according to the kit instructions, 1 mL of FLIPR buffer salt solution was added to 77 mg probenecid just before needed. • 2× (8 μM) Fluo-4 Direct™ loading buffer was formulated: the number of tubes in Fluo-4 Direct™ needed for the experiment was melted in advance. Just before needed, 10 ml of FLIPR buffer salt solution and 0.2 mL of 250 mM Probenecid solution were added to each tube and vortexed in dark for more than 5 minutes.
• a) One tube of cells was taken from the liquid nitrogen tank and quickly thawed in 37° C. water bath. • b) The cell suspension was added to a centrifuge tube to which the preheated 20 ml medium was added in advance. • c) The centrifuge tube was centrifuged at 1000 rpm for 5 minutes at room temperature. • d) The supernatant was slowly decanted to avoid affecting the precipitated cells. • e) The cells were resuspended with 10-30 ml medium by pipetting the cells gently with a pipette. • f) The viability and number of cells were calculated with the cell counter. • g) The cells were diluted to 1×10^5 cells/ml with medium, and inoculated in the 384-well polylysine coated cell plate at 20 μL/well. • h) The plate was incubated in an incubator at 5% CO2, 37° C. for 16 to 20 hours.
10 μL of experimental buffer salt solution was added into the cell plate according to the set program, and the fluorescence signal was read. 10 μL of agonist reference compound was further added at a given concentration to the cell plate and the fluorescence signal was read. After reading, the data was derived by “Max-Min” and “Read 90 to Maximum Allowed” methods in the software and EC80 of the corresponding cell line was calculated, and the reference compound with a concentration of 6× EC80 was prepared. • f) The FLIPR instrument software was run. 10 μL of the compound to be tested and the reference compound at a given concentration were added into the cell plate according to the set program, and the fluorescence signal was read. 10 μL of reference compound agonist was further added at a concentration of 6× EC80 to the cell plate and the fluorescence signal was read. • g) Data Analysis • Calculation formula for data in the project:
Inhibitor % activity=100−(signal value per well−average value for high dose control group of inhibitor)/(average value for DMSO control group−average value for high dose control group of inhibitor)*100%.

[2] = 5 mg/kg p.o. (low dose group; olanzapine positive control)
[3] = 10 mg/kg p.o. (medium dose group)
[4] = 20 mg/kg p.o. (high dose group)

T1 sequence (P14416 whole entry): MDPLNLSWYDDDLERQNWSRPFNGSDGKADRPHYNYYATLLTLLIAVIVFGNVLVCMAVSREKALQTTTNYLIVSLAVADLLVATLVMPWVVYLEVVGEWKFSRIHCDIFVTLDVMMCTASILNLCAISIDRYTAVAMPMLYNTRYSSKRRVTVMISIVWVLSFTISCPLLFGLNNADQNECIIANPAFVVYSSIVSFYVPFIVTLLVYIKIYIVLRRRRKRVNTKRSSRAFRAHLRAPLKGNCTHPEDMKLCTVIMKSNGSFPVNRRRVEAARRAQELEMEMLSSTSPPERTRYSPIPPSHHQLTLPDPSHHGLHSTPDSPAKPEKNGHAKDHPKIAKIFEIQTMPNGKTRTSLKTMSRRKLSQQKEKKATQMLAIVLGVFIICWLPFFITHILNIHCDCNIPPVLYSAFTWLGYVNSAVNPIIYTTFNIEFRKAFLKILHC

SMILES	Effect on PCP-induced high locomotor activity compared with olanzapine (in words) [1]	Inhibition of PCP-induced high locomotor activity (in words) [1]	Distance resulting from the activity, First 30 min [1, 2]	Distance resulting from the activity, Last 30 min [1, 2]	Distance resulting from the activity, First 30 min [1, 3]	Distance resulting from the activity, Last 30 min [1, 3]	Distance resulting from the activity, First 30 min [1, 4]	Distance resulting from the activity, Last 30 min [1, 4]	IC50 (D2 receptor)
Oc1cccc(C2CCN(Cc3c[nH]c4ccccc34)C2)c1 (racemic) [MDC-161502-002, 1-(indole-3-methyl)-3-(3-hydroxyphenyl)pyrrolidine]	equivalent to the effect of the positive drug olanzapine; also recorded: significant advantages over olanzapine	inhibited PCP-induced high locomotor activity in mice	241185	265712	211543	206789	158231	110918	2 nM
O=S(=O)(Nc1cccc(C2CCN(Cc3c[nH]c4ccccc34)C2)c1)c1cccs1 (stereo not drawn) [MDC-161502-008, 1-(indole-3-methyl)-3-[3-(2-thiophenesulfonamido)phenyl]pyrrolidine]	equivalent to the effect of the positive drug olanzapine	inhibited PCP-induced high locomotor activity in mice	299745		246900	230876	220968	189765	5.4 nM
O=S(=O)(CC(F)(F)F)Nc1cccc(C2CCN(Cc3c[nH]c4ccccc34)C2)c1 (stereo not drawn) [MDC-161502-006, 1-(indole-3-methyl)-3-(3-trifluoroethanesulfonamidophenyl)pyrrolidine]			327586	302499	286745	267834	248576	230867	171 nM
